From US20260014129A1, “MITOCHONDRIAL PYRUVATE METABOLISM INHIBITORS FOR TREATING CHRONIC MYELOID LEUKEMIA” (The University Court of the University of Glasgow, priority 2022, published 2026)

Legend:
MPC = biological target: T1, MPC (Homo sapiens, UniProt O95563+Q9Y5U8); conditions: variety of cell types (ref 27); cited from earlier work
T1 sequence (Q9Y5U8 1-109): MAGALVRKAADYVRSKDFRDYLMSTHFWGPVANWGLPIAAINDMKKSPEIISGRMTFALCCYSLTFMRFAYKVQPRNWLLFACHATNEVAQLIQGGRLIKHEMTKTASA
T1 sequence (O95563 1-127): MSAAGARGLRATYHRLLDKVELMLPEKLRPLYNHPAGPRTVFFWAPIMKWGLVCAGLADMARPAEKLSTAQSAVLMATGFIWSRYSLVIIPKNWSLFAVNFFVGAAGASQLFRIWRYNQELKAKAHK

phospho-AMPK = assay: Western blot of AMPK and phospho-AMPK in CD34+ CML cells; type: cell-based, human; conditions: imatinib-treated patient samples, 24 hours
Experimental: (§1) Cells were lysed in RIPA buffer containing mini-Complete protease inhibitor cocktail and phosphatase inhibitors (both Roche). Total protein concentration was quantified using a Pierce BCA kit (Thermo Fisher Scientific: 23227). Equal amounts of protein (5-7.5 μg) were heated at 95° C. for 5 min and separated (120V) in 4-12% gels (Novex) for SDS-PAGE. Proteins were transferred onto PDVF membranes (Thermo Fisher Scientific: 21882) then blocked in 2% BSA (in Tris-buffered saline, 0.01% Tween (TBS-T)) for one hour. Next, membranes were incubated overnight at 4° C. with the primary antibodies. The membranes were rinsed three times with TBS-T, then incubated with secondary HRP-linked antibodies (1:10,000) for 1 hour at room temperature. The SuperSignal West Femto Maxi detection system was used (Thermo Fisher Scientific: 34095) and imaging was carried out using a LI-COR Odyssey Fc gel-doc system.

K562 cells = assay: Viability (Annexin V/7AAD) and CFC assays of vector control versus PC knockout K562 cells; type: cell-based, human; conditions: 72 hours; 600 nm imatinib or 100 nm omacetaxine
Experimental: (a) Western blot of PC and loading control (tubulin) from vector control or PC knockout K562 cells. (b) Proliferation of K562 cells from A. Shown is average and SEM from 3 independent experiments. (c) Fractional labelling from ^13C6 glucose into indicated metabolites of PC knockout cells are shown (n=3) after 24 hours. Plots were generated using Autoplotter, average and SD are plotted. Statistical analyses were conducted on the m+5 fraction. An ordinary one-way ANOVA was used with Dunnett's test used to correct for multiple comparisons. (d) Cells viability was measured using Annexin V and 7AAD. Cells were either left untreated (UT) or exposed for 72 hours to 600 nm imatinib or 100 nm omacetaxine (OMA). Shown is average and SEM from 4 independent experiments. An ordinary one-way ANOVA was used with Dunnett's test used to correct for multiple comparisons. (e) Colony Forming Cell (CFC) potential of control and […] cells. Cells were either left untreated (UT) or exposed for 72 hours to 600 nm imatinib. Shown is average and SEM from 4 independent experiments. An ordinary one-way ANOVA was used with Dunnett's test used to correct for multiple comparisons. […]

CML CD34+ cells [1] = assay: RNA-seq differential gene expression and GSEA of imatinib-treated CML CD34+ cells; type: cell-based, human; conditions: imatinib 2 μM, 48 hours
Experimental: RNA was extracted from 200,000 CML CD34+ cells using an RNA easy mini kit (Qiagen) according to the manufacturer's instructions.
Libraries were prepared using the Illumina TruSeq Stranded mRNA LT Kit (Illumina) and run on the Illumina Next Seq 500 using the High Output 75 cycles kit (2×36 cycles, paired end reads, single index; Illumina). FastQ files were generated using Illumina's bcl2fastq (v. 2.20.0.422).
QC, alignment, and parsing of files into count matrices was performed in command line, with subsequent differential gene expression (DGE) analysis performed in R (1.2.1335). Adapter trimming was performed using Scythe (version 0.981), and Sickle (version 0.940), was used to trim bases with quality scores of less than 20. Prior to and after this pre-processing fastqc (version 0.11.2) was run to ascertain sequence quality, alongside the efficacy of the pre-processing steps. Trimmed reads were indexed and aligned using Hisat2 (version 2.1.0). Hisat2 indexes (GRCh38 genome_tran) were obtained from the John Hopkins Center for Computational Biology, 2020. Samtools (version 0.1.19044428cd) view was used to convert the resulting .sam to .bam files, whilst samtools sort was used to sort the .bam files. Assembly was achieved through the use of stringtie (John Hopkins Center for Computational Biology, 2020), with output .gtf files converted to count matrices using the python script prepDE.py (stringtie version 1.3.3b.Linux_x86_64). Reads were assembled using an annotated reference human genome (GRCh38.p13), obtained from GENCODE (GENECODE, 2020). DESeq2 (version 1.26.0) was used to generate results sets from the gene and transcript count matrices. G genes with read counts too low to allow for the calculation of p and adjusted p-values (padj: Benjamini-Hochberg) were removed from the data sets leaving gene and transcript counts of sizes 16,069 and 45,218 respectively.
GSEA (version 4.1) was conducted on pre-ranked lists (ranked by pi score calculated by multiplying LOG fold change by −LOG (corrected p-value)).

phospho-CRKL = assay: Western blot of phospho-CRKL in CML patient samples; type: cell-based, human; conditions: imatinib, two patient samples
Experimental: as §1

CML CD34+ cells [2] = assay: Proliferation (cell doubling time) and apoptosis (Annexin V/7-AAD) of primary CML CD34+ cells; conditions: imatinib 2 μM

Structure (SMILES) | inhibition of MPC activity (MPC) | AMPK and phospho-AMPK protein levels (phospho-AMPK) | sensitisation of K562 to the drug by PC ablation, viability and CFC assays (K562 cells) | most downregulated pathways in GSEA (CML CD34+ cells [1]; Hallmark gene sets) | PC transcript level (CML CD34+ cells [1]; paired transcriptomic data) | PDH transcript level (CML CD34+ cells [1]; paired transcriptomic data) | phospho-CRKL protein level (phospho-CRKL) | cell proliferation (cell doubling time) (CML CD34+ cells [2]; primary CML CD34+ cells in Plasmax, p-value=0.0659) | level of apoptosis (CML CD34+ cells [2]; primary CML CD34+ cells, p-value=0.081)
CCc1ccc(C(=O)COc2ccc(CC3SC(=O)NC3=O)cc2)nc1 (stereo not drawn) [MSDC-0160] | specifically inhibit MPC activity | – | – | – | – | – | – | – | –
Cc1ccc(NC(=O)c2ccc(CN3CCN(C)CC3)cc2)cc1Nc1nccc(-c2cccnc2)n1 [imatinib] | – | variable depending on patient sample | sensitised | oxidative phosphorylation, glycolysis, and fatty acid oxidation | no change | downregulation | decreased | inhibited cell proliferation | modest, sample-dependent increase in the level of apoptosis
